According to patent US5356904A, “Carbostyril oxytocin receptor antagonists” (Merck & Co., Inc., priority 1992, dated 1994):
pIC50: −log10 of the molar value. Read-outs that look alike come from different tables or passages of the source.

Columns and labels:
AVP-V2 sites = AVP-V2 sites (Rattus norvegicus, UniProt Q00788); test: [3H]vasopressin (AVP) radioligand binding, kidney medulla membranes (AVP-V2 sites); conditions: for inhibition at 3 µM: read-out: % Inhibition rat V2
uterine OT receptors = target: T1, uterine OT receptors (Rattus norvegicus, UniProt P70536); test: [3H]oxytocin (OT) radioligand binding, uterine membranes; conditions: for inhibition at 10 µM: read-out: % Inhibition rat OT
T1 construct: using a crude membrane preparation of uteri; from tissue; host or cells: rat uterus, crude membrane preparation (DES-treated rats)
T1 sequence (P70536 1-388): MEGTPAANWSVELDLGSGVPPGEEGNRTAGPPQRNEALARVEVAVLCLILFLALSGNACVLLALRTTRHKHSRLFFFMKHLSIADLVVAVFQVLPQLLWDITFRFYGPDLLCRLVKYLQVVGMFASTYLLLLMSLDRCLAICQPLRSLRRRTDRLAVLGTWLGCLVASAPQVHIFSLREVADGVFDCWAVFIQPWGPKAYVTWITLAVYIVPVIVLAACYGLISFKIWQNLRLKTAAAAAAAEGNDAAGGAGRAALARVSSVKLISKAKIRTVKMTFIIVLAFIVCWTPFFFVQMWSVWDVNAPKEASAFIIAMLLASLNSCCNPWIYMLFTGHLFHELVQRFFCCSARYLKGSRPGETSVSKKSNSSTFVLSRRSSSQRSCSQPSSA

AVP-V1 sites = target: T2, AVP-V1 sites (Rattus norvegicus, UniProt P30560); test: [3H]vasopressin (AVP) radioligand binding, liver membranes (AVP-V1 sites); conditions: for inhibition at 3 µM: read-out: % Inhibition rat V1
T2 construct: crude membrane preparation of male rat liver; from tissue; host or cells: male rat liver, crude membrane preparation
T2 sequence (P30560 whole entry): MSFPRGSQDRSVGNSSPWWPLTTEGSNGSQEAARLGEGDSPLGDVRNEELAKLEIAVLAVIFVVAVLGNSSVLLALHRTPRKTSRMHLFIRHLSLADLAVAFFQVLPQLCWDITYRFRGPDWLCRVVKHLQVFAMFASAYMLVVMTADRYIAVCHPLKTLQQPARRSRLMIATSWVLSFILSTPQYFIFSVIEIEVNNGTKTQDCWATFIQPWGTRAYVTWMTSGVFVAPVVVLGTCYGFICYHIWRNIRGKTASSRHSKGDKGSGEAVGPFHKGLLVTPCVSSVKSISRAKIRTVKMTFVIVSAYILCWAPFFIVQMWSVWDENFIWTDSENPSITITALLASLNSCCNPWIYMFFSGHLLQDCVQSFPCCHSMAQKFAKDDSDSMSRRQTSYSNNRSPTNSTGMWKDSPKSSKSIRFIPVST

Sequence of AVP-V2 sites (Q00788 whole entry): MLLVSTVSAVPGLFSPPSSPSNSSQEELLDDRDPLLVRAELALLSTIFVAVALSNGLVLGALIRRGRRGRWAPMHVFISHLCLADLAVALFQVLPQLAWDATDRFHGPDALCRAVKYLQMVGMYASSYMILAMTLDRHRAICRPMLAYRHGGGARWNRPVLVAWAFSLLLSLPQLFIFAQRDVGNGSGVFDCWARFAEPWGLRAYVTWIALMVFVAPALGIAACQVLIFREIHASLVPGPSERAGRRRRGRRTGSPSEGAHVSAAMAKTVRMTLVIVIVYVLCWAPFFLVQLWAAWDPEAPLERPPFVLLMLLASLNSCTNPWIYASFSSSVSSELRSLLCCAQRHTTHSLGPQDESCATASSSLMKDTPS

| SMILES | pIC50 (uterine OT receptors) | pIC50 (AVP-V2 sites) | pIC50 (AVP-V1 sites) | also measured |
| --- | --- | --- | --- | --- |
| O=C(c1ccc(-c2ccccc2)cc1)N1CCC(N2C(=O)CCc3ccccc32)CC1 [C6H5] | 5.46 | – | – | inhibition at 3 µM (AVP-V2 sites): 2%; inhibition at 3 µM (AVP-V1 sites): 65% |
| O=C(c1ccc(C(F)(F)F)cc1)N1CCC(N2C(=O)CCc3ccccc32)CC1 [CF3] | – | 4.22 | 6.10 | inhibition at 10 µM (uterine OT receptors): 69% |
| O=C(c1cccc2ccccc12)N1CCC(N2C(=O)CCc3ccccc32)CC1 [CO, 1-naphthyl] | – | – | – | inhibition at 3 µM (AVP-V2 sites; @ 3 uM): 5%; inhibition at 10 µM (uterine OT receptors; @ 10 uM): 69%; inhibition at 3 µM (AVP-V1 sites; @ 3 uM): 17% |
| O=C(c1ccc2ccccc2c1)N1CCC(N2C(=O)CCc3ccccc32)CC1 [CO, 2-naphthyl] | – | – | – | inhibition at 3 µM (AVP-V2 sites): 7%; inhibition at 10 µM (uterine OT receptors): 75%; inhibition at 3 µM (AVP-V1 sites): 75% |
| O=C(c1ccc2[nH]ccc2c1)N1CCC(N2C(=O)CCc3ccccc32)CC1 [CO, 5-indolyl] | 5.77 | 4.25 | 6.62 | – |
| Nc1ccc(CC(=O)N2CCC(N3C(=O)CCc4ccccc43)CC2)cc1 [CO, p-CH2C6H4NH2] | – | – | – | inhibition at 3 µM (AVP-V2 sites; @ 3 uM): 1%; inhibition at 1 µM (uterine OT receptors; @ 1 uM): 19%; inhibition at 3 µM (AVP-V1 sites; @ 3 uM): 27% |
| CC(=O)Nc1ccc(CC(=O)N2CCC(N3C(=O)CCc4ccccc43)CC2)cc1 [CO, p-CH2C6H4NHAc] | 5.64 | < 4.00 | 6.02 | – |
| COc1ccc(CC(=O)N2CCC(N3C(=O)CCc4ccccc43)CC2)cc1 [CO, p-CH2C6H4OCH3] | 5.62 | < 4.00 | 5.22 | – |
| O=C(c1ccc(OCCCN2C(=O)c3ccccc3C2=O)cc1)N1CCC(N2C(=O)CCc3ccccc32)CC1 [Example 2] | 5.96 | – | – | – |
| COc1ccc(C(=O)N2CCC(N3C(=O)CCc4ccccc43)CC2)c(OC)c1 [Example 5] | 6.25 | – | 7.41 | – |
| O=C(c1ccc(OCCCN2C(=O)c3ccccc3C2=O)cc1)N1CCC(N2C(=O)CCc3ccccc32)CC1 [O(CH2)3NPth (drawing 528)] | – | ≤ 4.00 | – | – |
| CC1(C)[C@@H]2CC[C@@]1(CS(=O)(=O)N1CCC(N3C(=O)CCc4ccccc43)CC1)C(=O)C2 [SO2, (+)-camphor-10-yl] | 5.72 | 4.14 | 5.10 | – |
| COc1ccc(S(=O)(=O)N2CCC(N3C(=O)CCc4ccccc43)CC2)cc1 [SO2, p-C6H4OCH3] | – | – | – | inhibition at 3 µM (AVP-V2 sites; @ 3 uM): 12%; inhibition at 10 µM (uterine OT receptors; @ 10 uM): 36%; inhibition at 3 µM (AVP-V1 sites; @ 3 uM): 15% |
| COc1cccc(C(=O)N2CCC(N3C(=O)CCc4ccccc43)CC2)c1 [m-OCH3] | 5.57 | < 4.00 | 5.68 | – |
| Cc1ccc(C(=O)N2CCC(N3C(=O)CCc4ccccc43)CC2)c(C)c1 [o-CH3, p-CH3] | – | – | – | inhibition at 3 µM (AVP-V2 sites; @ 3 uM): 55%; inhibition at 10 µM (uterine OT receptors; @ 10 uM): 79%; inhibition at 3 µM (AVP-V1 sites; @ 3 uM): 48% |
| O=C(c1ccc(Cl)cc1Cl)N1CCC(N2C(=O)CCc3ccccc32)CC1 [o-Cl, p-Cl] | – | – | – | inhibition at 3 µM (AVP-V2 sites; @ 3 uM): 1%; inhibition at 10 µM (uterine OT receptors; @ 10 uM): 7%; inhibition at 3 µM (AVP-V1 sites; @ 3 uM): 34% |
| O=C(c1ccc([N+](=O)[O-])cc1Cl)N1CCC(N2C(=O)CCc3ccccc32)CC1 [o-Cl, p-NO2] | 4.82 | – | – | inhibition at 3 µM (AVP-V2 sites): 6%; inhibition at 3 µM (AVP-V1 sites): 34% |
| COc1ccc(C(=O)N2CCC(N3C(=O)CCc4ccccc43)CC2)c(OC)c1 [o-OCH3, p-OCH3 (drawing 527)] | – | 4.55 | – | – |
| COc1ccccc1C(=O)N1CCC(N2C(=O)CCc3ccccc32)CC1 [o-OCH3] | 5.96 | 4.18 | 6.42 | – |
| CC(C)(C)c1ccc(C(=O)N2CCC(N3C(=O)CCc4ccccc43)CC2)cc1 [tert-C4H9] | – | ~4.15 | 6.10 | inhibition at 10 µM (uterine OT receptors): 77% |
